Values joined by “and” are separate entries in the source; they are usually repeats but may differ in a detail not shown here. Equal entries are not always repeated. Where two headings read alike, the source gives them in different places. Marks after values point to notes of the source that are not given here.
Legend:
[1] = Serum PFAS measurement by LC-HRMS, GenX Exposure Study participants; settings: human, in vivo
[2] = predicted values from EPA Chemistry Dashboard; cited from earlier work
[3] = cited from earlier work; for published half-lives: biological half-lives quoted in abstract
[4] = experimental values from EPA Chemistry Dashboard; cited from earlier work
[5] = both, human, in vivo
[6] = literature serum half-life, ref Li et al. 19
[7] = literature serum half-life, ref Li et al. 12
[8] = weighted average, ref Zhang et al. 16

For `O=C(O)C(F)(F)OC(F)(F)OC(F)(F)OC(F)(F)F` [PFO3OA, perfluoro-3,5,7-trioxaoctanoic acid], the concentration at 5 months [1] is given as 1.02 ng/mL and the logKow [2] is given as 6.07^a.
In the case of `O=S(=O)(O)C(F)(F)C(F)(F)C(F)(F)C(F)(F)C(F)(F)C(F)(F)F` [PFHxS, perfluorohexanesulfonic acid], the logKow [2] is listed as 3.48^a and the half-life [3, 6] is listed as 1661^e days.
For `O=S(=O)(O)C(F)(F)C(F)(F)C(F)(F)C(F)(F)C(F)(F)C(F)(F)C(F)(F)F` [PFHpS], the logKow [2] is listed as 4.85^a and the half-life [3, 6] is listed as 533^e days.
For `O=S(=O)(O)C(F)(F)C(F)(F)C(F)(F)C(F)(F)C(F)(F)C(F)(F)C(F)(F)C(F)(F)F` [PFOS, perfluorooctanesulfonic acid], the logKow [4] is listed as 5.61^b, the published half-lives [3] is listed as 800 to 1200 days and the half-life [3, 7] is listed as 1241^d days.
For `O=C(O)C(F)(F)C(F)(F)C(F)(F)C(F)(F)C(F)(F)C(F)(F)C(F)(F)F` [PFOA, perfluorooctanoic acid], the logKow [4] is listed as 3.1^b, the published half-lives [3] is listed as 800 to 1200 days and the half-life [3, 7] is listed as 902^c days. The half-life [3, 6] was 902^e days.
In the case of `O=S(=O)(O)C(F)(F)C(F)(F)C(F)(F)C(F)(F)C(F)(F)F` [PFPeS], the logKow [2] is listed as 3.38^a and the half-life [3, 6] is listed as 343^e days.
In the case of `O=C(O)C(F)(F)OC(F)(F)OC(F)(F)OC(F)(F)OC(F)(F)F` [PFO4DA, perfluoro-3,5,7,9-tetraoxadecanoic acid], the “effect of age on concentration” value [5] is reported as 0.0129 ng/mL/year, the “effect of gender concentration in males” value [5] is reported as 0.376 ng/mL and the concentration at 5 months [1] is reported as 5.6 ng/mL. The concentration at 11 months [1] was 1.16 ng/mL and the logKow [2] was 8.53^a.
For `O=C(O)C(F)(F)C(F)(F)C(F)(F)C(F)(F)C(F)(F)F` [PFHxA, perfluorohexanoic acid], the logKow [2] is given as 2.8^a, the published half-lives [3] is given as 30 to 60 days and the half-life ([3]; ref Russel et al. 52) is given as 32^g days.
For `O=S(=O)(O)C(F)(F)C(F)(F)C(F)(F)C(F)(F)F` [PFBS, perfluorobutanesulfonic acid], the logKow [4] is listed as 2.76^b and the half-life ([3]; ref Olsen et al. 54) is listed as 26^h days.
In the case of `O=C(O)C(F)(OC(F)(F)C(F)(F)C(F)(F)F)C(F)(F)F` (stereo not shown) [GenX, hexafluoropropylene oxide dimer acid], the logKow [2] is listed as 5.13^a, the half-life ([3]; in workers, ECHA estimate) is listed as 81 h and the half-life ([3]; values from ECHA report) is listed as 3.375^f days and 3.38^e days.
For `O=C(O)C(F)(F)C(F)(F)C(F)(F)C(F)(F)C(F)(F)C(F)(F)C(F)(F)C(F)(F)C(F)(F)F` [PFDA], the logKow [4] is given as 4.15^b and the half-life [3, 8] is given as 3743^i days.
In the case of `O=C(O)C(F)(F)C(F)(F)C(F)(F)C(F)(F)C(F)(F)C(F)(F)C(F)(F)C(F)(F)F` [PFNA, perfluorononanoic acid], the logKow [4] is given as 3.54^b and the half-life [3, 8] is given as 1417^i days.
For `O=C(O)C(F)(F)C(F)(F)C(F)(F)C(F)(F)C(F)(F)C(F)(F)F` [PFHpA, perfluoroheptanoic acid], the logKow [4] is given as 2.05^b, the published half-lives [3] is given as 30 to 60 days and the half-life [3, 8] is given as 464^i days.
In the case of `O=S(=O)(O)C(F)(F)C(F)(F)OC(F)C(F)(F)F` (stereo not shown) [NVHOS, 1,1,2,2-tetrafluoro-2-(1,2,2,2-tetrafluoroethoxy)ethanesulfonic acid], the concentration at 5 months [1] is given as 1.14 ng/mL and the logKow [2] is given as 2.58^a.
For `O=C(O)C(F)(F)OC(F)(F)OC(F)(F)OC(F)(F)OC(F)(F)OC(F)(F)F` [PFO5DoA, perfluoro-3,5,7,9,11-pentaoxadodecanoic acid], the “effect of age on concentration” value [5] was 0.0160 ^* ng/mL/year, the “effect of gender concentration in males” value [5] was 0.298 ng/mL and the concentration at 5 months [1] was 12.4 ng/mL. The concentration at 11 months [1] was 8.91 ng/mL.
For `O=C(O)C(F)(F)C(F)(F)C(F)(F)C(F)(F)C(F)(F)C(F)(F)C(F)(F)C(F)(F)C(F)(F)C(F)(F)F` [PFUnA], the logKow [4] is given as 4.00^b and the half-life [3, 8] is given as 3743^i days.

Source: PMC10790670 (Environmental science & technology, 2023)
